Experimental data reported in patent publication US11000033B2, “Ketone or oxime compound, and herbicide” (NISSAN CHEMICAL CORPORATION, priority 2014, dated 2021).

Experiments:
Type in all cases: in vivo
[1] = tested on: Cyperus difformis; assay: Test Example 3: herbicidal effect by foliage application, Wagner pot (symbol E); settings: application herbicide amount 320 g/ha
Procedure, shortened: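 The compound, formulated as an emulsion and diluted with water to a predetermined rate, is applied uniformly to leaves of two-week-old seedlings growing in submerged alluvial soil at 25–30 °C. Rice is included. Each plant is assessed 3 weeks later using defined criteria.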

[2] = tested on: directly sowed rice plant; assay: Test Example 3: effect on crop by foliage application, Wagner pot (symbol b); settings: application herbicide amount 320 g/ha
Procedure, shortened: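 Plants are raised from seed in flooded paddy conditions: water stands 0.1–0.5 cm over alluvial soil, and the pot is kept in a greenhouse at 25–30 °C. Species sown are barnyardgrass (E. crus-galli var. crus-galli), Leptochloa chinensis, Cyperus difformis and rice.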

[3] = tested on: Digitaria ciliaris; assay: Test Example 4: herbicidal effect by soil treatment (symbol F); settings: application herbicide amount 320 g/ha
Procedure, shortened: (§1)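 Seeds were sown in sterilized diluvial soil, covered with about 1.5 cm of soil, and the soil surface was sprayed with a water-diluted emulsion of the compound at a predetermined rate. Plants grew in a greenhouse at 25° C. to 30° C.; effects were scored visually 3 weeks after application.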

[4] = tested on: Echinochloa crus-galli var. crus-galli; assay: Test Example 4: herbicidal effect by soil treatment (symbol H); settings: application herbicide amount 320 g/ha
Procedure, shortened: as §1

[5] = tested on: Lolium multiflorum Lam.; assay: Test Example 4: herbicidal effect by soil treatment (symbol K); settings: application herbicide amount 320 g/ha
Procedure, shortened: as §1

[6] = tested on: Abutilon theophrasti; assay: Test Example 4: herbicidal effect by soil treatment (symbol M); settings: application herbicide amount 320 g/ha
Procedure, shortened: as §1

[7] = tested on: corn; assay: Test Example 4: effect on crop by soil treatment (symbol c); settings: application herbicide amount 320 g/ha
Procedure, shortened: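 Diluvial soil (sterilized) in boxes; seeds placed spot-wise alongside weed species; ~1.5 cm covering soil. Greenhouse, 25–30° C.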

[8] = tested on: rice; assay: Test Example 4: effect on crop by soil treatment (symbol b); settings: application herbicide amount 320 g/ha
Procedure, shortened: (§2)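 Plants are raised in a greenhouse (25° C. to 30° C.) from spot-sown seed, which sits under about 1.5 cm of sterilized diluvial soil in a box shared with weed species.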

[9] = tested on: wheat; assay: Test Example 4: effect on crop by soil treatment (symbol e); settings: application herbicide amount 320 g/ha
Procedure, shortened: as §2

[10] = tested on: beet; assay: Test Example 4: effect on crop by soil treatment (symbol f); settings: application herbicide amount 320 g/ha
Procedure, shortened: as §2

[11] = tested on: Digitaria ciliaris; assay: Test Example 5: herbicidal effect by foliage application, plastic box (symbol F); settings: 320 g/ha, 3 weeks after application
Procedure, shortened: (§3)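 Leaf-applied emulsion, water-diluted to a preset herbicide dose, on two-week-old seedlings raised in a 25° C. to 30° C. greenhouse; injury rated at 3 weeks using earlier criteria.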

[12] = tested on: Setaria viridis; assay: Test Example 5: herbicidal effect by foliage application, plastic box (symbol G); settings: 320 g/ha, 3 weeks after application
Procedure, shortened: as §3

[13] = tested on: Alopecurus myosuroides; assay: Test Example 5: herbicidal effect by foliage application, plastic box (symbol J); settings: 320 g/ha, 3 weeks after application
Procedure, shortened: as §3

[14] = tested on: Apera spica-venti; assay: Test Example 5: herbicidal effect by foliage application, plastic box (symbol L); settings: 320 g/ha, 3 weeks after application
Procedure, shortened: as §3

[15] = tested on: Veronica persica; assay: Test Example 5: herbicidal effect by foliage application, plastic box (symbol R); settings: 320 g/ha, 3 weeks after application
Procedure, shortened: as §3

[16] = tested on: beet; assay: Test Example 5: effect on crop by foliage application, plastic box (symbol f); settings: 320 g/ha, 3 weeks after application
Procedure, shortened: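 Plants were raised from seed in a greenhouse (25° C. to 30° C.) after sowing in a plastic box of sterilized diluvial soil.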

[17] = tested on: Echinochloa oryzacola Vasing.; assay: Test Example 2: herbicidal activity, application during weed generation in submerged conditions (symbol A); settings: Table 23; application herbicide amount 320 g/ha; grade 0-5 by criteria of Test Example 1
Procedure, shortened: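 Treatment timing was the one- to two-leaf stage, with diluted emulsifiable compound dropped onto the paddy water (depth 4 cm) over alluvial soil. All three species grew from a mixed sowing in a 25° C. to 30° C. greenhouse. Injury was judged by eye 3 weeks on.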

CC(=O)CC1CC(O)=C(c2c(C)cc(-c3ccc(OC(F)(F)F)cc3)cc2C)C1=O (stereo not shown) [7-016]
herbicidal effect on E, grade 0-5 [1]: 0 (Herbicidal ratio of 5% or lower (almost no effect)) | effect on crop b (directly sowed rice plant), grade 0-5 [2]: 0 (Herbicidal ratio of 5% or lower (almost no effect)) | Herbicidal effect grade, F: Digitaria ciliaris [3]: 3 (Herbicidal ratio of 40% or higher and lower than 70%) | Herbicidal effect grade, H: Echinochloa crus-galli var. crus-galli [4]: 2 (Herbicidal ratio of 20% or higher and lower than 40%) | Herbicidal effect grade, K: Lolium multiflorum Lam. [5]: 0 (Herbicidal ratio of 5% or lower (almost no effect)) | Herbicidal effect grade, M: Abutilon theophrasti [6]: 0 (Herbicidal ratio of 5% or lower (almost no effect)) | Effect on crop grade, c: corn [7]: 0 (Herbicidal ratio of 5% or lower (almost no effect)) | Effect on crop grade, b: directly sowed rice plant [8]: 0 (Herbicidal ratio of 5% or lower (almost no effect)) | Effect on crop grade, e: wheat [9]: 0 (Herbicidal ratio of 5% or lower (almost no effect)) | Effect on crop grade, f: beet [10]: 0 (Herbicidal ratio of 5% or lower (almost no effect)) | F: Digitaria ciliaris, herbicidal effect (criteria of Test Example 1) [11]: 0 (Herbicidal ratio of 5% or lower (almost no effect)) | G: Setaria viridis, herbicidal effect (criteria of Test Example 1) [12]: 1 (Herbicidal ratio of 5% or higher and lower than 20%) | J: Alopecurus myosuroides, herbicidal effect (criteria of Test Example 1) [13]: 0 (Herbicidal ratio of 5% or lower (almost no effect)) | L: Apera spica-venti, herbicidal effect (criteria of Test Example 1) [14]: 0 (Herbicidal ratio of 5% or lower (almost no effect)) | R: Veronica persica, herbicidal effect (criteria of Test Example 1) [15]: 0 (Herbicidal ratio of 5% or lower (almost no effect)) | f: beet, effect on crop (criteria of Test Example 1) [16]: 0 (Herbicidal ratio of 5% or lower (almost no effect))

CON=C(C)CC1CC(OC(=O)C(C)(C)F)=C(c2c(C)cc(C)cc2C)C1=O (stereo not shown) [1-039]
Herbicidal effect grade, A: Echinochloa oryzacola Vasing. [17]: 5 (Herbicidal ratio of 90% or more (almost completely withered)) | herbicidal effect on E, grade 0-5 [1]: 5 (Herbicidal ratio of 90% or more (almost completely withered)) | effect on crop b (directly sowed rice plant), grade 0-5 [2]: 5 (Herbicidal ratio of 90% or more (almost completely withered)) | F (Digitaria ciliaris) herbicidal effect grade [3]: 5 (Herbicidal ratio of 90% or more (almost completely withered)) | H (Echinochloa crus-galli var. crus-galli) herbicidal effect grade [4]: 5 (Herbicidal ratio of 90% or more (almost completely withered)) | K (Lolium multiflorum Lam.) herbicidal effect grade [5]: 5 (Herbicidal ratio of 90% or more (almost completely withered)) | M (Abutilon theophrasti) herbicidal effect grade [6]: 5 (Herbicidal ratio of 90% or more (almost completely withered)) | c (corn) effect on crop grade [7]: 4 (Herbicidal ratio of 70% or higher and lower than 90%) | b (directly sowed rice plant) effect on crop grade [8]: 5 (Herbicidal ratio of 90% or more (almost completely withered)) | e (wheat) effect on crop grade [9]: 4 (Herbicidal ratio of 70% or higher and lower than 90%) | f (beet) effect on crop grade [10]: 3 (Herbicidal ratio of 40% or higher and lower than 70%) | F: Digitaria ciliaris, herbicidal effect grade [11]: 5 (Herbicidal ratio of 90% or more (almost completely withered)) | G: Setaria viridis, herbicidal effect grade [12]: 5 (Herbicidal ratio of 90% or more (almost completely withered)) | J: Alopecurus myosuroides, herbicidal effect grade [13]: 5 (Herbicidal ratio of 90% or more (almost completely withered)) | L: Apera spica-venti, herbicidal effect grade [14]: 5 (Herbicidal ratio of 90% or more (almost completely withered)) | f: beet, effect on crop grade [16]: 3 (Herbicidal ratio of 40% or higher and lower than 70%)

CC(CC1CC(O)=C(c2c(C)cc(C)cc2C)C1=O)=NOCC=CCl (stereo not shown) [1-056]
Herbicidal effect grade, A: Echinochloa oryzacola Vasing. [17]: 5 (Herbicidal ratio of 90% or more (almost completely withered)) | herbicidal effect on E, grade 0-5 [1]: 5 (Herbicidal ratio of 90% or more (almost completely withered)) | effect on crop b (directly sowed rice plant), grade 0-5 [2]: 5 (Herbicidal ratio of 90% or more (almost completely withered)) | F (Digitaria ciliaris) herbicidal effect grade [3]: 5 (Herbicidal ratio of 90% or more (almost completely withered)) | H (Echinochloa crus-galli var. crus-galli) herbicidal effect grade [4]: 5 (Herbicidal ratio of 90% or more (almost completely withered)) | K (Lolium multiflorum Lam.) herbicidal effect grade [5]: 5 (Herbicidal ratio of 90% or more (almost completely withered)) | M (Abutilon theophrasti) herbicidal effect grade [6]: 4 (Herbicidal ratio of 70% or higher and lower than 90%) | c (corn) effect on crop grade [7]: 3 (Herbicidal ratio of 40% or higher and lower than 70%) | b (directly sowed rice plant) effect on crop grade [8]: 5 (Herbicidal ratio of 90% or more (almost completely withered)) | e (wheat) effect on crop grade [9]: 5 (Herbicidal ratio of 90% or more (almost completely withered)) | f (beet) effect on crop grade [10]: 0 (Herbicidal ratio of 5% or lower (almost no effect)) | F: Digitaria ciliaris, herbicidal effect grade [11]: 5 (Herbicidal ratio of 90% or more (almost completely withered)) | G: Setaria viridis, herbicidal effect grade [12]: 5 (Herbicidal ratio of 90% or more (almost completely withered)) | J: Alopecurus myosuroides, herbicidal effect grade [13]: 5 (Herbicidal ratio of 90% or more (almost completely withered)) | L: Apera spica-venti, herbicidal effect grade [14]: 5 (Herbicidal ratio of 90% or more (almost completely withered)) | f: beet, effect on crop grade [16]: 0 (Herbicidal ratio of 5% or lower (almost no effect))

CC(CC1CC(O)=C(c2c(C)cc(C)cc2C)C1=O)=NOCC[Si](C)(C)C (stereo not shown) [1-055]
Herbicidal effect grade, A: Echinochloa oryzacola Vasing. [17]: 2 (Herbicidal ratio of 20% or higher and lower than 40%) | herbicidal effect on E, grade 0-5 [1]: 4 (Herbicidal ratio of 70% or higher and lower than 90%) | effect on crop b (directly sowed rice plant), grade 0-5 [2]: 5 (Herbicidal ratio of 90% or more (almost completely withered)) | F (Digitaria ciliaris) herbicidal effect grade [3]: 5 (Herbicidal ratio of 90% or more (almost completely withered)) | H (Echinochloa crus-galli var. crus-galli) herbicidal effect grade [4]: 4 (Herbicidal ratio of 70% or higher and lower than 90%) | K (Lolium multiflorum Lam.) herbicidal effect grade [5]: 5 (Herbicidal ratio of 90% or more (almost completely withered)) | M (Abutilon theophrasti) herbicidal effect grade [6]: 0 (Herbicidal ratio of 5% or lower (almost no effect)) | c (corn) effect on crop grade [7]: 0 (Herbicidal ratio of 5% or lower (almost no effect)) | b (directly sowed rice plant) effect on crop grade [8]: 5 (Herbicidal ratio of 90% or more (almost completely withered)) | e (wheat) effect on crop grade [9]: 0 (Herbicidal ratio of 5% or lower (almost no effect)) | f (beet) effect on crop grade [10]: 0 (Herbicidal ratio of 5% or lower (almost no effect)) | F: Digitaria ciliaris, herbicidal effect grade [11]: 3 (Herbicidal ratio of 40% or higher and lower than 70%) | G: Setaria viridis, herbicidal effect grade [12]: 3 (Herbicidal ratio of 40% or higher and lower than 70%) | J: Alopecurus myosuroides, herbicidal effect grade [13]: 4 (Herbicidal ratio of 70% or higher and lower than 90%) | L: Apera spica-venti, herbicidal effect grade [14]: 5 (Herbicidal ratio of 90% or more (almost completely withered)) | f: beet, effect on crop grade [16]: 0 (Herbicidal ratio of 5% or lower (almost no effect))
